We go through 20 molecules from patent US20250171437A1 (Agios Pharmaceuticals,Inc., priority 2022, published 2025).

A value given as a limit tells only on which side of the number the result lay.

The AC50 is the concentration at which the activity in the assay is half-maximal.

In this assay the target is T1, human PAH with the R408W mutation (A375 R408W cells) (Homo sapiens, UniProt P00439, R408W).
T1 construct: expressed in transfected cells
T1 sequence (P00439 1-452 R408W): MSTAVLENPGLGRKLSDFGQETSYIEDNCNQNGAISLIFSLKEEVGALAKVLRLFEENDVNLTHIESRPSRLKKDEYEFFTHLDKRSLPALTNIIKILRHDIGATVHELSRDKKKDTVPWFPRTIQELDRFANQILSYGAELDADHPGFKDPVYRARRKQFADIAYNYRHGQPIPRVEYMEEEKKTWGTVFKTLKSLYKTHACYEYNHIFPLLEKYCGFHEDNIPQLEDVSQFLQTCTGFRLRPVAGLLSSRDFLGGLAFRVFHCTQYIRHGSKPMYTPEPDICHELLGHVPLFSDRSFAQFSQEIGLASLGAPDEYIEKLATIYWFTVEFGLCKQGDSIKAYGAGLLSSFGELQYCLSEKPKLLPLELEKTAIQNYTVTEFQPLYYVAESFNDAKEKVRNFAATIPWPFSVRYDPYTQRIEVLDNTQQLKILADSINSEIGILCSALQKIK
The experiment in a line: Cell Based Phenylalanine Flux Assay. Conditions: A375 R408W cells; 24 hrs with compound, then 20 μM sepiapterin and 800 μM 13C9,15N-Phenylalanine for 4 hours; 13C-Tyrosine by LC-MS; average where tested multiple times. An outline of the steps: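 A375 cells stably expressing human PAH R408W treated 24 h at 37° C with a 10-point 2-fold dose curve in duplicate, 0.5% DMSO. Then 20 μM sepiapterin and 800 μM 13C9,15N-Phe added for 4 h; 13C-Tyr in media measured by LC-MS to give AC50.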
For the molecule `Cc1nc(-c2ccn(C)n2)oc1C(=O)N1CCc2[nH]cnc2[C@@H]1c1nc2cc(F)ccc2o1` [Example 826, (R)-(4-(5-fluorobenzo[d]oxazol-2-yl)-6,7-dihydro-1H-imidazo[4,5-c]pyridin-5(4H)-yl)(4-methyl-2-(1-methyl-1H-pyrazol-3-yl)oxazol-5-yl)methanone], the AC50 was ≥ 5 µM.

`COc1cccc2oc([C@@H]3c4nc[nH]c4CCN3C(=O)c3nc(C)nn3C)nc12` [Example 827, (S)-(1,3-dimethyl-1H-1,2,4-triazol-5-yl)(4-(4-methoxybenzo[d]oxazol-2-yl)-6,7-dihydro-1H-imidazo[4,5-c]pyridin-5(4H)-yl)methanone]: the AC50 fell in the range of 1 to 5 µM.

With `COc1cccc2oc([C@H]3c4nc[nH]c4CCN3C(=O)c3nc(C)nn3C)nc12` [Example 828, (R)-(1,3-dimethyl-1H-1,2,4-triazol-5-yl)(4-(4-methoxybenzo[d]oxazol-2-yl)-6,7-dihydro-1H-imidazo[4,5-c]pyridin-5(4H)-yl)methanone], the AC50 is ≥ 5 µM.

In the case of `Cn1cc(-c2nnc(C(=O)N3CCc4[nH]cnc4[C@@H]3c3nc4cccc(C(F)(F)F)c4o3)o2)cn1` [Example 829, (R)-(5-(1-methyl-1H-pyrazol-4-yl)-1,3,4-oxadiazol-2-yl)(4-(7-(trifluoromethyl)benzo[d]oxazol-2-yl)-6,7-dihydro-1H-imidazo[4,5-c]pyridin-5(4H)-yl)methanone], the AC50 is 1 to 5 µM.

Consider `Cn1cc(-c2nnc(C(=O)N3CCc4[nH]cnc4[C@H]3c3nc4cccc(C(F)(F)F)c4o3)o2)cn1` [Example 830, (S)-(5-(1-methyl-1H-pyrazol-4-yl)-1,3,4-oxadiazol-2-yl)(4-(7-(trifluoromethyl)benzo[d]oxazol-2-yl)-6,7-dihydro-1H-imidazo[4,5-c]pyridin-5(4H)-yl)methanone], for which the half-maximal activity concentration (AC50) was in the range of 0.5 to 1 µM.

For the molecule `Cn1ccc(-c2nnc(C(=O)N3CCc4[nH]cnc4[C@@H]3c3nc4cccc(C(F)(F)F)c4o3)o2)n1` [Example 831, (R)-(5-(1-methyl-1H-pyrazol-3-yl)-1,3,4-oxadiazol-2-yl)(4-(7-(trifluoromethyl)benzo[d]oxazol-2-yl)-6,7-dihydro-1H-imidazo[4,5-c]pyridin-5(4H)-yl)methanone], the AC50 fell in the range of 0.5 to 1 µM.

Consider `Cn1ccc(-c2nnc(C(=O)N3CCc4[nH]cnc4[C@H]3c3nc4cccc(C(F)(F)F)c4o3)o2)n1` [Example 832, (S)-(5-(1-methyl-1H-pyrazol-3-yl)-1,3,4-oxadiazol-2-yl)(4-(7-(trifluoromethyl)benzo[d]oxazol-2-yl)-6,7-dihydro-1H-imidazo[4,5-c]pyridin-5(4H)-yl)methanone], for which the AC50 is ≤ 0.5 µM.

With `O=C(c1nnc(-c2ncccc2F)o1)N1CCc2[nH]cnc2[C@H]1c1nc2ccccc2o1` [Example 833, (S)-(4-(benzo[d]oxazol-2-yl)-6,7-dihydro-1H-imidazo[4,5-c]pyridin-5(4H)-yl)(5-(3-fluoropyridin-2-yl)-1,3,4-oxadiazol-2-yl)methanone], the AC50 was ≤ 0.5 µM.

In the case of `O=C(c1nnc(-c2ncccc2F)o1)N1CCc2[nH]cnc2[C@@H]1c1nc2ccccc2o1` [Example 834, (R)-(4-(benzo[d]oxazol-2-yl)-6,7-dihydro-1H-imidazo[4,5-c]pyridin-5(4H)-yl)(5-(3-fluoropyridin-2-yl)-1,3,4-oxadiazol-2-yl)methanone], the concentration at half-maximal activity (AC50) is 0.5 to 1 µM.

On to `O=C(c1ccnn1CC(F)F)N1CCc2[nH]cnc2[C@H]1c1nc2ccccc2o1` [Example 835, (S)-(4-(benzo[d]oxazol-2-yl)-6,7-dihydro-1H-imidazo[4,5-c]pyridin-5(4H)-yl)(1-(2,2-difluoroethyl)-1H-pyrazol-5-yl)methanone], for which the AC50 was ≤ 0.5 µM.

Take `O=C(c1ccnn1CC(F)F)N1CCc2[nH]cnc2[C@@H]1c1nc2ccccc2o1` [Example 836, (R)-(4-(benzo[d]oxazol-2-yl)-6,7-dihydro-1H-imidazo[4,5-c]pyridin-5(4H)-yl)(1-(2,2-difluoroethyl)-1H-pyrazol-5-yl)methanone]: the AC50 lay within 0.5 to 1 µM.

On to `O=C(c1nnc(-c2ccccn2)o1)N1CCc2[nH]cnc2[C@@H]1c1nc2cccc(C(F)(F)F)c2o1` [Example 837, (R)-(5-(pyridin-2-yl)-1,3,4-oxadiazol-2-yl)(4-(7-(trifluoromethyl)benzo[d]oxazol-2-yl)-6,7-dihydro-1H-imidazo[4,5-c]pyridin-5(4H)-yl)methanone], for which the half-maximal activity concentration (AC50) is 0.5 to 1 µM.

With `O=C(c1nnc(-c2ccccn2)o1)N1CCc2[nH]cnc2[C@H]1c1nc2cccc(C(F)(F)F)c2o1` [Example 838, (S)-(5-(pyridin-2-yl)-1,3,4-oxadiazol-2-yl)(4-(7-(trifluoromethyl)benzo[d]oxazol-2-yl)-6,7-dihydro-1H-imidazo[4,5-c]pyridin-5(4H)-yl)methanone], the AC50 is ≤ 0.5 µM.

With `O=C(c1nnc(-c2ncccc2F)o1)N1CCc2[nH]cnc2[C@@H]1c1nc2cccc(C(F)(F)F)c2o1` [Example 839, (R)-(5-(3-fluoropyridin-2-yl)-1,3,4-oxadiazol-2-yl)(4-(7-(trifluoromethyl)benzo[d]oxazol-2-yl)-6,7-dihydro-1H-imidazo[4,5-c]pyridin-5(4H)-yl)methanone], the AC50 is 0.5 to 1 µM.

As to `O=C(c1nnc(-c2ncccc2F)o1)N1CCc2[nH]cnc2[C@H]1c1nc2cccc(C(F)(F)F)c2o1` [Example 840, (S)-(5-(3-fluoropyridin-2-yl)-1,3,4-oxadiazol-2-yl)(4-(7-(trifluoromethyl)benzo[d]oxazol-2-yl)-6,7-dihydro-1H-imidazo[4,5-c]pyridin-5(4H)-yl)methanone], the AC50 was ≤ 0.5 µM.

On to `O=C(c1nnc(-c2cnn(C(F)F)c2)o1)N1CCc2[nH]cnc2[C@H]1c1nc2ccccc2o1` [Example 841, (S)-(4-(benzo[d]oxazol-2-yl)-6,7-dihydro-1H-imidazo[4,5-c]pyridin-5(4H)-yl)(5-(1-(difluoromethyl)-1H-pyrazol-4-yl)-1,3,4-oxadiazol-2-yl)methanone], for which the AC50 is ≤ 0.5 µM.

As to `O=C(c1nnc(-c2cnn(C(F)F)c2)o1)N1CCc2[nH]cnc2[C@@H]1c1nc2ccccc2o1` [Example 842, (R)-(4-(benzo[d]oxazol-2-yl)-6,7-dihydro-1H-imidazo[4,5-c]pyridin-5(4H)-yl)(5-(1-(difluoromethyl)-1H-pyrazol-4-yl)-1,3,4-oxadiazol-2-yl)methanone], the AC50 is 1 to 5 µM.

Turning to `Cn1ccc(-c2nnc(C(=O)N3CCc4[nH]cnc4[C@H]3c3nc4ccccc4o3)o2)n1` [Example 843, (S)-(4-(benzo[d]oxazol-2-yl)-6,7-dihydro-1H-imidazo[4,5-c]pyridin-5(4H)-yl)(5-(1-methyl-1H-pyrazol-3-yl)-1,3,4-oxadiazol-2-yl)methanone], the AC50 was ≤ 0.5 µM.

Turning to `Cn1ccc(-c2nnc(C(=O)N3CCc4[nH]cnc4[C@@H]3c3nc4ccccc4o3)o2)n1` [Example 844, (R)-(4-(benzo[d]oxazol-2-yl)-6,7-dihydro-1H-imidazo[4,5-c]pyridin-5(4H)-yl)(5-(1-methyl-1H-pyrazol-3-yl)-1,3,4-oxadiazol-2-yl)methanone], the AC50 fell in the range of 0.5 to 1 µM.

For the molecule `O=C(c1nnc(-c2ccn(C(F)F)n2)o1)N1CCc2[nH]cnc2[C@@H]1c1nc2ccccc2o1` [Example 845, (R)-(4-(benzo[d]oxazol-2-yl)-6,7-dihydro-1H-imidazo[4,5-c]pyridin-5(4H)-yl)(5-(1-(difluoromethyl)-1H-pyrazol-3-yl)-1,3,4-oxadiazol-2-yl)methanone], the AC50 was in the range of 1 to 5 µM.
